Measured values from ChEMBL document CHEMBL1201862, “PubChem BioAssay data set” (2004).
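Tested at 5 concentrations; 48 h exposure; 96-well plates; endpoints linearly interpolated, else capped at highest concentration. GI50 = concentration required for 50% inhibition of growth.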 Active and inactive are the calls of the source. No stated cut-off is given here; in the data, active = GI50 up to about 1.1 µM and inactive = higher.

Experiments:
Assay in all cases: NCI anticancer screen, dose series, 48 h
SNB-19 = system: SNB-19
SNB-78 = system: SNB-78
SF-295 = system: SF-295
HOP-92 = system: HOP-92
XF498 = system: XF498
M14 = system: M14
HT-29 = system: HT-29
NCI-H460 = system: NCI-H460
SK-MEL-2 = system: SK-MEL-2
LXFL 529 = system: LXFL 529
CCRF-CEM = system: CCRF-CEM
OVCAR-4 = system: OVCAR-4
SN12C = system: SN12C
SF-539 = system: SF-539
TK-10 = system: TK-10
HL-60 = system: HL-60
HOP-62 = system: HOP-62
HCC 2998 = system: HCC 2998
COLO 205 = system: COLO 205
UACC-62 = system: UACC-62
Malme-3M = system: Malme-3M
IGROV-1 = system: IGROV-1
K562 = system: K562
OVCAR-8 = system: OVCAR-8
EKVX = system: EKVX
KM12 = system: KM12
SK-OV-3 = system: SK-OV-3
LOX IMVI = system: LOX IMVI
OVCAR-5 = system: OVCAR-5
NCI-H23 = system: NCI-H23
SW-620 = system: SW-620
SNB-75 = system: SNB-75
OVCAR-3 = system: OVCAR-3
KM-20L2 = system: KM-20L2
SK-MEL-28 = system: SK-MEL-28
ACHN = system: ACHN
DLD-1 = system: DLD-1
DMS-114 = system: DMS-114
MOLT-4 = system: MOLT-4
SR = system: SR
SF-268 = system: SF-268
U-251 = system: U-251
RPMI-8226 = system: RPMI-8226
HCT-116 = system: HCT-116
786-0 = system: 786-0
UO-31 = system: UO-31
M19-MEL = system: M19-MEL
UACC-257 = system: UACC-257
SK-MEL-5 = system: SK-MEL-5
HCT-15 = system: HCT-15
NCI-H226 = system: NCI-H226
CAKI-1 = system: CAKI-1
A549 = system: A549
NCI-H522 = system: NCI-H522
HOP-18 = system: HOP-18
DMS-273 = system: DMS-273
RXF 393 = system: RXF 393
A498 = system: A498

Question: `Cc1nc(N)nc(N)c1CCCc1ccccc1` was tested. Which GI50 (SNB-19) did it give?
Answer: 11.2 µM (inactive)

Question: What about the GI50 (SNB-78) of the same compound?
Answer: 32.1 µM (inactive)

Question: And the GI50 (SF-295)?
Answer: 5.18 µM (inactive)

Question: What about the GI50 (HOP-92) of the same compound?
Answer: 11.6 µM (inactive)

Question: And the GI50 (XF498)?
Answer: 35.7 µM (inactive)

Question: And the GI50 (M14)?
Answer: 4.78 µM (inactive)

Question: What about the GI50 (HT-29) of the same compound?
Answer: 2.15 µM (inactive)

Question: And the GI50 (NCI-H460)?
Answer: 3.47 µM (inactive)

Question: What about the GI50 (SK-MEL-2) of the same compound?
Answer: 7.98 µM (inactive)

Question: What about the GI50 (LXFL 529) of the same compound?
Answer: 8.05 µM (inactive)

Question: What about the GI50 (CCRF-CEM) of the same compound?
Answer: 6.25 µM (inactive)

Question: And the GI50 (OVCAR-4)?
Answer: 18.4 µM (inactive)

Question: And the GI50 (SN12C)?
Answer: 3.65 µM (inactive)

Question: And the GI50 (SF-539)?
Answer: 13.9 µM (inactive)

Question: What about the GI50 (TK-10) of the same compound?
Answer: > 100 µM (inactive)

Question: And the GI50 (HL-60)?
Answer: 6.35 µM (inactive)

Question: What about the GI50 (HOP-62) of the same compound?
Answer: 12.1 µM (inactive)

Question: And the GI50 (HCC 2998)?
Answer: 12.5 µM (inactive)

Question: And the GI50 (COLO 205)?
Answer: 22.8 µM (inactive)

Question: And the GI50 (UACC-62)?
Answer: 5.55 µM (inactive)

Question: And the GI50 (Malme-3M)?
Answer: 1.73 µM (inactive)

Question: And the GI50 (IGROV-1)?
Answer: 6.11 µM (inactive)

Question: What about the GI50 (K562) of the same compound?
Answer: 0.552 µM (active)

Question: What about the GI50 (OVCAR-8) of the same compound?
Answer: 7.59 µM (inactive)

Question: And the GI50 (EKVX)?
Answer: 15.2 µM (inactive)

Question: What about the GI50 (KM12) of the same compound?
Answer: 28.6 µM (inactive)

Question: What about the GI50 (SK-OV-3) of the same compound?
Answer: 57.5 µM (inactive)

Question: And the GI50 (LOX IMVI)?
Answer: 3.18 µM (inactive)

Question: And the GI50 (OVCAR-5)?
Answer: 15.9 µM (inactive)

Question: And the GI50 (NCI-H23)?
Answer: 10.3 µM (inactive)

Question: And the GI50 (SW-620)?
Answer: 4.57 µM (inactive)

Question: What about the GI50 (SNB-75) of the same compound?
Answer: 38.3 µM (inactive)

Question: And the GI50 (OVCAR-3)?
Answer: 18.6 µM (inactive)

Question: What about the GI50 (KM-20L2) of the same compound?
Answer: 7.31 µM (inactive)

Question: And the GI50 (SK-MEL-28)?
Answer: 15.2 µM (inactive)

Question: What about the GI50 (ACHN) of the same compound?
Answer: 4.35 µM (inactive)

Question: What about the GI50 (DLD-1) of the same compound?
Answer: 12.1 µM (inactive)

Question: And the GI50 (DMS-114)?
Answer: 4.48 µM (inactive)

Question: What about the GI50 (MOLT-4) of the same compound?
Answer: 4.07 µM (inactive)

Question: And the GI50 (SR)?
Answer: 4.07 µM (inactive)

Question: What about the GI50 (SF-268) of the same compound?
Answer: 5.4 µM (inactive)

Question: What about the GI50 (U-251) of the same compound?
Answer: 5.36 µM (inactive)

Question: And the GI50 (RPMI-8226)?
Answer: 33.3 µM (inactive)

Question: And the GI50 (HCT-116)?
Answer: 2.7 µM (inactive)

Question: And the GI50 (786-0)?
Answer: 3.66 µM (inactive)

Question: What about the GI50 (UO-31) of the same compound?
Answer: 20.8 µM (inactive)

Question: And the GI50 (M19-MEL)?
Answer: 9.95 µM (inactive)

Question: And the GI50 (UACC-257)?
Answer: 12.7 µM (inactive)

Question: And the GI50 (SK-MEL-5)?
Answer: 4.94 µM (inactive)

Question: What about the GI50 (HCT-15) of the same compound?
Answer: 2.87 µM

Question: And the GI50 (NCI-H226)?
Answer: 97.7 µM (inactive)

Question: What about the GI50 (CAKI-1) of the same compound?
Answer: 9.25 µM (inactive)

Question: And the GI50 (A549)?
Answer: 1.49 µM (inactive)

Question: What about the GI50 (NCI-H522) of the same compound?
Answer: 7.18 µM (inactive)

Question: How did the GI50 (HOP-18) turn out when `O=C1OC(c2ccccc2)=N/C1=C/NC(Cc1ccc(O)cc1)C(=O)O` (stereo unspecified) was run?
Answer: 36.1 µM (inactive)

Question: And the GI50 (SNB-19)?
Answer: > 100 µM (inactive)

Question: And the GI50 (SNB-78)?
Answer: > 100 µM (inactive)

Question: And the GI50 (SF-295)?
Answer: > 100 µM (inactive)

Question: And the GI50 (HOP-92)?
Answer: > 100 µM (inactive)

Question: And the GI50 (XF498)?
Answer: > 100 µM (inactive)

Question: What about the GI50 (M14) of the same compound?
Answer: > 100 µM (inactive)

Question: What about the GI50 (HT-29) of the same compound?
Answer: > 100 µM (inactive)

Question: What about the GI50 (DMS-273) of the same compound?
Answer: > 100 µM (inactive)

Question: What about the GI50 (NCI-H460) of the same compound?
Answer: > 100 µM (inactive)

Question: And the GI50 (SK-MEL-2)?
Answer: > 100 µM (inactive)

Question: And the GI50 (LXFL 529)?
Answer: > 100 µM (inactive)

Question: What about the GI50 (CCRF-CEM) of the same compound?
Answer: > 100 µM (inactive)

Question: And the GI50 (OVCAR-4)?
Answer: > 100 µM (inactive)

Question: What about the GI50 (SF-539) of the same compound?
Answer: > 100 µM (inactive)

Question: And the GI50 (TK-10)?
Answer: > 100 µM (inactive)

Question: And the GI50 (HL-60)?
Answer: > 100 µM (inactive)

Question: And the GI50 (HOP-62)?
Answer: > 100 µM (inactive)

Question: What about the GI50 (HCC 2998) of the same compound?
Answer: > 100 µM (inactive)

Question: What about the GI50 (COLO 205) of the same compound?
Answer: > 100 µM (inactive)

Question: What about the GI50 (Malme-3M) of the same compound?
Answer: > 100 µM (inactive)

Question: What about the GI50 (K562) of the same compound?
Answer: > 100 µM (inactive)

Question: What about the GI50 (OVCAR-8) of the same compound?
Answer: > 100 µM (inactive)

Question: What about the GI50 (EKVX) of the same compound?
Answer: > 100 µM (inactive)

Question: And the GI50 (KM12)?
Answer: > 100 µM (inactive)

Question: And the GI50 (SK-OV-3)?
Answer: > 100 µM (inactive)

Question: And the GI50 (LOX IMVI)?
Answer: > 100 µM (inactive)

Question: And the GI50 (OVCAR-5)?
Answer: > 100 µM (inactive)

Question: And the GI50 (NCI-H23)?
Answer: > 100 µM (inactive)

Question: And the GI50 (SW-620)?
Answer: > 100 µM (inactive)

Question: What about the GI50 (SNB-75) of the same compound?
Answer: > 100 µM (inactive)

Question: What about the GI50 (OVCAR-3) of the same compound?
Answer: > 100 µM (inactive)

Question: What about the GI50 (KM-20L2) of the same compound?
Answer: > 100 µM (inactive)

Question: What about the GI50 (SK-MEL-28) of the same compound?
Answer: > 100 µM (inactive)

Question: What about the GI50 (ACHN) of the same compound?
Answer: > 100 µM (inactive)

Question: And the GI50 (DLD-1)?
Answer: > 100 µM (inactive)

Question: What about the GI50 (DMS-114) of the same compound?
Answer: > 100 µM (inactive)

Question: And the GI50 (SF-268)?
Answer: > 100 µM (inactive)

Question: And the GI50 (U-251)?
Answer: > 100 µM (inactive)

Question: What about the GI50 (RPMI-8226) of the same compound?
Answer: > 100 µM (inactive)

Question: And the GI50 (RXF 393)?
Answer: > 100 µM (inactive)

Question: And the GI50 (HCT-116)?
Answer: > 100 µM (inactive)

Question: What about the GI50 (786-0) of the same compound?
Answer: > 100 µM (inactive)

Question: What about the GI50 (UO-31) of the same compound?
Answer: > 100 µM (inactive)

Question: What about the GI50 (UACC-257) of the same compound?
Answer: 73.5 µM (inactive)

Question: What about the GI50 (SK-MEL-5) of the same compound?
Answer: > 100 µM (inactive)

Question: What about the GI50 (HCT-15) of the same compound?
Answer: > 100 µM

Question: What about the GI50 (A498) of the same compound?
Answer: > 100 µM (inactive)

Question: What about the GI50 (NCI-H226) of the same compound?
Answer: > 100 µM (inactive)

Question: What about the GI50 (CAKI-1) of the same compound?
Answer: > 100 µM (inactive)

Question: What about the GI50 (A549) of the same compound?
Answer: > 100 µM (inactive)

Question: And the GI50 (NCI-H522)?
Answer: > 100 µM (inactive)
